Measured values taken from US10322107B2, “N-methyl-N-(1-phenyl-2-(1-pyrrolidinyl)ethyl)-2-aminophenylacetamide derivatives agonists for the kappa opioid receptor” (Nektar Therapeutics, priority 2014, dated 2019).
Where two headings read alike, the source gives them in different places.

How the values were obtained:
[1] = molecular target: recombinant human kappa (KOR) opioid receptor (Homo sapiens, UniProt P41145); experiment: Competitive radioligand binding at KOR ([3H]diprenorphine), CHO-K1 membranes
[2] = molecular target: T1, recombinant human mu (MOR) opioid receptor (Homo sapiens, UniProt P35372); experiment: Competitive radioligand binding at MOR ([3H]naloxone), single concentration, CHO-K1 membranes; conditions: 10 μM test compound; percent inhibition of specific [3H]naloxone (4 nM) binding; read-out: Mu Opioid Receptor Mu Receptor Inhibition % inhib @ 10 uM
T1 construct: expressed in transfected cells; host or cells: CHO-K1 cells (membranes)
Experimental: The binding affinities of certain compounds of the present invention were evaluated using radioligand binding assays in membranes prepared from CHO-K1 cells expressing recombinant human kappa (KOR) or mu (MOR) opioid receptors.
Competition binding experiments were conducted by incubating membrane protein to equilibrium in triplicate in the presence of a fixed concentration of radioligand and increasing concentrations of test compound for evaluation of binding to KOR or single concentration (10 μM) of test compound for evaluation of binding to MOR in 101 μL final volume. The radioligands used were specific for each receptor type, and the assay conditions are described in Table 1. Following incubations, the membranes were rapidly filtered through GF/B filter plate (presoaked with 0.5% polyethyleneimine), washed five times with cold 50 mM Tris-HCl, pH 7.5, and the bound radioactivity was then measured by liquid scintillation counting. Non-specific binding was measured in the presence of excess ligand; this value was subtracted from the total binding to yield the specific binding at each test concentration.
Ki (affinity of test compound) was obtained using the Cheng Prusoff correction using experimental Kd (affinity of radioligand) values that were previously determined under these assay conditions. For MOR binding, compounds were tested at one concentration, 10 μM, to evaluate its ability to inhibit specific radioligand binding. The values are expressed as percent inhibition of specific binding and greater than 50% inhibition of binding was considered to be significant.

[3] = molecular target: T2, KOR (kappa opioid receptor) (Homo sapiens, UniProt P41145); experiment: Inhibition of cAMP accumulation in forskolin-stimulated CHO-K1 cells stably expressing KOR; type: cell-based
T2 construct: expressed in transfected cells

[4] = Cheng Prusoff correction using experimental Kd of radioligand, read-out: Kappa Opioid Receptor Ki
[5] = read-out: Kappa Opioid Receptor IC50

Molecule `CN(C(=O)Cc1ccc(Cl)c(Cl)c1)[C@H](CN1CCCC1)c1cccc(NS(=O)(=O)c2ccc(C#N)c(C(F)(F)F)c2)c1` [Example 1, (S)—N-(1-(3-(4-cyano-3-(trifluoromethyl)phenylsulfonamido)phenyl)-2-(pyrrolidin-1-yl)ethyl)-2-(3,4-dichlorophenyl)-N-methylacetamide] has a Ki [1, 4] of 4.84 nM, an IC50 [1, 5] of 37.1 nM and an inhibition at 10 µM [2] of 89%. The EC50 [3] was 2 nM.

For `CN(C(=O)Cc1ccc(Cl)c(Cl)c1)[C@H](CN1CCCC1)c1cccc(NS(=O)(=O)c2cn(C)c(=O)n(C)c2=O)c1` [Example 2, (S)-2-(3,4-dichlorophenyl)-N-(1-(3-(1,3-dimethyl-2,4-dioxo-1,2,3,4-tetrahydropyrimidine-5-sulfonamido)phenyl)-2-(pyrrolidin-1-yl)ethyl)-N-methylacetamide], the Ki [1, 4] was 0.7 nM, the IC50 [1, 5] was 5.36 nM and the inhibition at 10 µM [2] was 87.1%. It also gave an EC50 [3] of 0.311 nM.

With `CN(C(=O)Cc1ccc(Cl)c(Cl)c1)[C@H](CN1CCCC1)c1cccc(NS(=O)(=O)c2ccc(Cl)nc2)c1` [Example 3, (S)—N-(1-(3-(6-chloropyridine-3-sulfonamido)phenyl)-2-(pyrrolidin-1-yl)ethyl)-2-(3,4-dichlorophenyl)-N-methylacetamide] the Ki [1, 4] was 0.36 nM, the IC50 [1, 5] was 2.79 nM and the inhibition at 10 µM [2] was 94.2%. For the same molecule, the EC50 [3] was 0.29 nM.

In the case of `CN(C(=O)Cc1ccc(Cl)c(Cl)c1)[C@H](CN1CCCC1)c1cccc(NS(=O)(=O)c2cccnc2Cl)c1` [Example 4, (S)—N-(1-(3-(2-chloropyridine-3-sulfonamido)phenyl)-2-(pyrrolidin-1-yl)ethyl)-2-(3,4-dichlorophenyl)-N-methylacetamide], the Ki [1, 4] is reported as 6.48 nM, the IC50 [1, 5] is reported as 49.7 nM and the inhibition at 10 µM [2] is reported as 91.8%. It also gave an EC50 [3] of 1.75 nM.

Molecule `CN(C(=O)Cc1ccc(Cl)c(Cl)c1)[C@H](CN1CCCC1)c1cccc(NS(=O)(=O)c2cn(C)nc2C(F)(F)F)c1` [Example 5, (S)-2-(3,4-dichlorophenyl)-N-methyl-N-(1-(3-(1-methyl-3-(trifluoromethyl)-1H-pyrazole-4-sulfonamido)phenyl)-2-(pyrrolidin-1-yl)ethyl)acetamide] has a Ki [1, 4] of 1.01 nM, an IC50 [1, 5] of 7.74 nM and an inhibition at 10 µM [2] of 97%. It also gave an EC50 [3] of 1.35 nM.

For `Cc1noc(C)c1S(=O)(=O)Nc1cccc([C@@H](CN2CCCC2)N(C)C(=O)Cc2ccc(Cl)c(Cl)c2)c1` [Example 6, (S)-2-(3,4-dichlorophenyl)-N-(1-(3-(3,5-dimethylisoxazole-4-sulfonamido)phenyl)-2-(pyrrolidin-1-yl)ethyl)-N-methylacetamide], the Ki [1, 4] was 0.39 nM, the IC50 [1, 5] was 3.01 nM and the inhibition at 10 µM [2] was 84.6%. It also gave an EC50 [3] of 1.15 nM.

Molecule `COCCN(C)S(=O)(=O)Nc1cccc([C@@H](CN2CCCC2)N(C)C(=O)Cc2ccc(Cl)c(Cl)c2)c1` [Example 7] has a Ki [1, 4] of 0.09 nM, an IC50 [1, 5] of 0.67 nM and an inhibition at 10 µM [2] of 99.9%. For the same molecule, the EC50 [3] was 0.19 nM.

`CC(O)CS(=O)(=O)Nc1cccc([C@@H](CN2CCCC2)N(C)C(=O)Cc2ccc(Cl)c(Cl)c2)c1` (stereo partly drawn) [Example 8, 2-(3,4-dichlorophenyl)-N-((1S)-1-(3-(2-hydroxypropylsulfonamido)phenyl)-2-(pyrrolidin-1-yl)ethyl)-N-methylacetamide] was tested, and the Ki [1, 4] was 0.05 nM, the IC50 [1, 5] was 0.35 nM and the inhibition at 10 µM [2] was 99%. It also gave an EC50 [3] of 0.06 nM.

`COCCN(CCOC)S(=O)(=O)Nc1cccc([C@@H](CN2CCCC2)N(C)C(=O)Cc2ccc(Cl)c(Cl)c2)c1` [Example 9, (S)—N-(1-(3-((N,N-bis(2-methoxyethyl)sulfamoyl)amino)phenyl)-2-(pyrrolidin-1-yl)ethyl)-2-(3,4-dichlorophenyl)-N-methylacetamide] gave a Ki [1, 4] of 0.47 nM, an IC50 [1, 5] of 3.58 nM and an inhibition at 10 µM [2] of 101%. It also gave an EC50 [3] of 0.5 nM.

`CN(C(=O)Cc1ccc(Cl)c(Cl)c1)[C@H](CN1CCCC1)c1cccc(NS(=O)(=O)c2cc(Cl)c(Cl)s2)c1` [Example 10, (S)-2-(3,4-dichlorophenyl)-N-(1-(3-(4,5-dichlorothiophene-2-sulfonamido)phenyl)-2-(pyrrolidin-1-yl)ethyl)-N-methylacetamide] showed a Ki [1, 4] of 1.25 nM, an IC50 [1, 5] of 9.61 nM and an inhibition at 10 µM [2] of 95.9%. It also gave an EC50 [3] of 3.74 nM.

For `CN(C(=O)C(c1ccccc1)c1ccccc1)[C@H](CN1CCCC1)c1cccc(NS(=O)(=O)CCOCC(F)(F)F)c1` [Example 11, (S)—N-methyl-2,2-diphenyl-N-(2-(pyrrolidin-1-yl)-1-(3-(2-(2,2,2-trifluoroethoxy)ethylsulfonamido)phenyl)ethyl)acetamide], the Ki [1, 4] was 45 nM, the IC50 [1, 5] was 345 nM and the inhibition at 10 µM [2] was 57.6%. For the same molecule, the EC50 [3] was 28.8 nM.

`CC(O)CS(=O)(=O)Nc1cccc([C@@H](CN2CCCC2)N(C)C(=O)C(c2ccccc2)c2ccccc2)c1` (stereo partly drawn) [Example 12, N-((1S)-1-(3-(2-hydroxypropylsulfonamido)phenyl)-2-(pyrrolidin-1-yl)ethyl)-N-methyl-2,2-diphenylacetamide] gave a Ki [1, 4] of 48.8 nM, an IC50 [1, 5] of 374 nM and an inhibition at 10 µM [2] of 47%. The EC50 [3] was 18.5 nM.

Work on `CC(O)CS(=O)(=O)Nc1cccc([C@@H](CN2CCCC2)N(C)C(=O)Cc2ccc(C(F)(F)F)cc2)c1` (stereo partly drawn) [Example 13, N-((1S)-1-(3-(2-hydroxypropylsulfonamido)phenyl)-2-(pyrrolidin-1-yl)ethyl)-N-methyl-2-(4-(trifluoromethyl)phenyl)acetamide] yielded a Ki [1, 4] of 0.1 nM, an IC50 [1, 5] of 0.75 nM and an inhibition at 10 µM [2] of 95.4%. The EC50 [3] was 0.067 nM.

For `CN(C(=O)Cc1ccc(F)cc1F)[C@H](CN1CC[C@H](O)C1)c1ccc(OCCO)cc1` [Example 15, 2-(2,4-Difluorophenyl)-N-{(1S)-1-[4-(2-hydroxyethoxy)phenyl]-2-[(3S)-3-hydroxypyrrolidin-1-yl]ethyl}-N-methylacetamide], the Ki [1, 4] was 0.69 nM, the IC50 [1, 5] was 5.27 nM and the inhibition at 10 µM [2] was 23.5%. It also gave an EC50 [3] of 0.164 nM.

`Cc1ccc(CC(=O)N(C)[C@H](CN2CC[C@H](O)C2)c2ccc(OCCO)cc2)cn1` [Example 16, N-{(1S)-1-[4-(2-Hydroxyethoxy)phenyl]-2-[(3S)-3-hydroxypyrrolidin-1-yl]ethyl}-N-methyl-2-(6-methylpyridin-3-yl)acetamide] showed a Ki [1, 4] of 1.34 nM, an IC50 [1, 5] of 10.3 nM and an inhibition at 10 µM [2] of 28.4%. For the same molecule, the EC50 [3] was 0.294 nM.

`CN(C(=O)Cc1nccs1)[C@H](CN1CC[C@H](O)C1)c1ccc(OCCO)cc1` [Example 18, N-{(1S)-1-[4-(2-Hydroxyethoxy)phenyl]-2-[(3S)-3-hydroxypyrrolidin-1-yl]ethyl}-N-methyl-2-(1,3-thiazol-2-yl)acetamide] was tested, and the IC50 [1] was 135 nM, the Ki [1, 4] was 17.6 nM and the inhibition at 10 µM [2] was -3.2%. The EC50 [3] was 4.67 nM.

`CN(C(=O)Cc1ccc(F)cc1F)[C@H](CN1CC[C@H](OCCO)C1)c1ccc(OCCO)cc1` [Example 20, 2-(2,4-difluorophenyl)-N—((S)-1-(4-(2-hydroxyethoxy)phenyl)-2-((S)-3-(2-hydroxyethoxy)pyrrolidin-1-yl)ethyl)-N-methylacetamide] showed a Ki [1, 4] of 7490 nM, an IC50 ([1]; inhibition of specific [3H]diprenorphine (1 nM) binding, one experiment in triplicate, read-out: Kappa Opioid Receptor IC50) of 57400 nM and an inhibition at 10 µM [2] of -29.4%. It also gave an EC50 [3] of 2670 nM.

`CN(C(=O)Cc1ccc(F)c(F)c1)[C@H](CN1CC[C@H](OCCO)C1)c1ccc(OCCO)cc1` [Example 21, 2-(3,4-Difluorophenyl)-N-{(1S)-1-[4-(2-hydroxyethoxy)phenyl]-2-[(3S)-3-(2-hydroxyethoxy)pyrrolidin-1-yl]ethyl}-N-methylacetamide] showed an IC50 [1] of 1450 nM, a Ki [1] of 189 nM and an inhibition at 10 µM [2] of 0%. The EC50 [3] was 33.3 nM.

`CN([C@H](CN1CC[C@H](O)C1)c1ccc(OCCO)cc1)S(=O)(=O)Cc1ccc(Cl)c(Cl)c1` [Example 22, 1-(3,4-Dichlorophenyl)-N-{(1S)-1-[4-(2-hydroxyethoxy)phenyl]-2-[(3S)-3-hydroxypyrrolidin-1-yl]ethyl}-N-methylmethanesulfonamide] was tested, and the Ki [1, 4] was 32.2 nM, the IC50 [1, 5] was 247 nM and the inhibition at 10 µM [2] was -10.3%. It also gave an EC50 [3] of 15.5 nM.

`CN([C@H](CN1CC[C@H](O)C1)c1ccc(OCCO)cc1)S(=O)(=O)Cc1ccc(C(F)(F)F)cc1` [Example 23, N-{(18)-1-[4-(2-Hydroxyethoxy)phenyl]-2-[(38)-3-hydroxypyrrolidin-1-yl]ethyl}-N-methyl-1-[4-(trifluoromethyl)phenyl]methanesulfonamide] showed an IC50 [1] of 1080 nM, a Ki [1] of 141 nM and an inhibition at 10 µM [2] of -2%. It also gave an EC50 [3] of 53.6 nM.

For `CN(C(=O)Cc1ccc(Cl)c(Cl)c1)[C@H](CN1CC(O)C1)c1ccc(OCCO)cc1` [Example 24, (S)-2-(3,4-dichlorophenyl)-N-(2-(3-hydroxyazetidin-1-yl)-1-(4-(2-hydroxyethoxy)phenyl)ethyl)-N-methylacetamide], the Ki [1, 4] was 2.71 nM, the IC50 [1, 5] was 20.8 nM and the inhibition at 10 µM [2] was 40.1%. It also gave an EC50 [3] of 0.78 nM.
